Source: ChEMBL document CHEMBL1201862, “PubChem BioAssay data set” (2004)
Activity calls are given as the source filed them.

What was measured:
[1] = molecular target: T1, Alkaline phosphatase, tissue-nonspecific isozyme (Homo sapiens, UniProt P05186); experiment: potency against alkaline phosphatase TNAP – biochemical, luminescent, dose response, SAR follow-up (AID 1056)
T1 sequence (P05186 whole entry): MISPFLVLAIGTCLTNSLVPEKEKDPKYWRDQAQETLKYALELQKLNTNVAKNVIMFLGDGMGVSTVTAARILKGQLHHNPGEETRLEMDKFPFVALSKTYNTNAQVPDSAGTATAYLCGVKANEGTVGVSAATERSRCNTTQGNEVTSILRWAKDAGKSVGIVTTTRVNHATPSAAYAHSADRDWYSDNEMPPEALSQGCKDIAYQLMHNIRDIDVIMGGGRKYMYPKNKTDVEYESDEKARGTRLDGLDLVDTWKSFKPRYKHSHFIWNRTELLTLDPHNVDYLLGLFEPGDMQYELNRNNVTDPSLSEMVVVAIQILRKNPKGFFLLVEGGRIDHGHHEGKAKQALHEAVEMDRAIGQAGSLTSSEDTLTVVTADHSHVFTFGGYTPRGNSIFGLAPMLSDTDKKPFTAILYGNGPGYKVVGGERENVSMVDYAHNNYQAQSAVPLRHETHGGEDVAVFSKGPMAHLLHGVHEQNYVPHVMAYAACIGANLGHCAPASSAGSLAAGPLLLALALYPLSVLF

[2] = molecular target: Glyceraldehyde-3-phosphate dehydrogenase (Homo sapiens, UniProt P04406)
Glyceraldehyde-3-phosphate dehydrogenase, sequence (P04406 whole entry): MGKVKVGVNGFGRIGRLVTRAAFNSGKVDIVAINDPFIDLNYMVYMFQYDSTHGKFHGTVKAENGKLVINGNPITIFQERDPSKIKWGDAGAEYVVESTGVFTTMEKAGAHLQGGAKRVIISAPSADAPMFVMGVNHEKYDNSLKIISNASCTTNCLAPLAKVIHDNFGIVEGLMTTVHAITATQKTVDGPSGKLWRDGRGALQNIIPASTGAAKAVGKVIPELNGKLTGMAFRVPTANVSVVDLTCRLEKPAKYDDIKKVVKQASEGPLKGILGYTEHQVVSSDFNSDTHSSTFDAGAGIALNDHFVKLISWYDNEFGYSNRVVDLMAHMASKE

[3] = molecular target: Alkaline phosphatase, placental type (Homo sapiens, UniProt P05187); experiment: human placental alkaline phosphatase inhibition – biochemical, luminescence, confirmation (AID 1512); type: functional
Alkaline phosphatase, placental type, sequence (P05187 whole entry): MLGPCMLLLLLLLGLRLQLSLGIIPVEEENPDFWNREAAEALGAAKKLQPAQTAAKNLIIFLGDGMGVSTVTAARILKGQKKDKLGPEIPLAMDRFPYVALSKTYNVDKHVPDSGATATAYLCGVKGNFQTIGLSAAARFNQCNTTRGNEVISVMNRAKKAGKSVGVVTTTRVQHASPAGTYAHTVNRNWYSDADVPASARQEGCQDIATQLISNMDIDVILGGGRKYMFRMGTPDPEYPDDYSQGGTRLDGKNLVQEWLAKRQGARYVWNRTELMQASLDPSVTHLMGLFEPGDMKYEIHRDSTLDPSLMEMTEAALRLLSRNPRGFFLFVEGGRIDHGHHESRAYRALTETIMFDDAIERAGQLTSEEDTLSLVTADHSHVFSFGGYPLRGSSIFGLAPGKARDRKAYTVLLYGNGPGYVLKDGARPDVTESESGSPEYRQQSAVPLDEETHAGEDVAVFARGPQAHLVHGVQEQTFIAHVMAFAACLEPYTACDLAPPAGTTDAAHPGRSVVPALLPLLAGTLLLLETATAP

CAAX prenyl protease 2 [4] = molecular target: T2, CAAX prenyl protease 2 (Homo sapiens, UniProt Q9Y256); experiment: inhibition of Ras-converting CAAX protease Rce1 – biochemical, yeast membranes, quenched-peptide fluorescence, cherry-pick, dose response (AID 588849)
T2 sequence (Q9Y256 whole entry): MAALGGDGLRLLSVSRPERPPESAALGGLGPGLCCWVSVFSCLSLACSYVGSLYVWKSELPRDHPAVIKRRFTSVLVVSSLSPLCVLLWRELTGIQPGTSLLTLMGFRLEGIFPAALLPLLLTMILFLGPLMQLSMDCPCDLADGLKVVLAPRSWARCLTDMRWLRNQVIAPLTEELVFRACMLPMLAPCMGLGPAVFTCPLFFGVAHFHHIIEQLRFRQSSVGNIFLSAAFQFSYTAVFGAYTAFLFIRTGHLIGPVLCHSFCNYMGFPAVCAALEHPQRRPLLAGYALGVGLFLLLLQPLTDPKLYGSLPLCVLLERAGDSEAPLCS

CAAX prenyl protease 2 [5] = molecular target: T3, CAAX prenyl protease 2 (Saccharomyces cerevisiae S288c, UniProt Q03530); type: biochemical
T3 sequence (Q03530 whole entry): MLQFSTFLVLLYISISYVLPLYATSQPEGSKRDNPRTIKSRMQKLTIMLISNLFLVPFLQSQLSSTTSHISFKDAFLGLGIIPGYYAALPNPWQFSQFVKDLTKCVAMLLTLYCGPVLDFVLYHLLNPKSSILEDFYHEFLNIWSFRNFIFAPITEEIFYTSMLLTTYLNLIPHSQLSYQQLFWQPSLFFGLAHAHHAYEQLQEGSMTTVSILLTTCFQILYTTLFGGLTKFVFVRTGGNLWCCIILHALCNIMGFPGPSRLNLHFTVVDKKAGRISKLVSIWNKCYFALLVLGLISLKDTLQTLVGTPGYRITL

[6] = tested on: Streptococcus sp. 'group A'; experiment: Streptococcus pyogenes SK(-)GAS viability under kanamycin – luminescence, BacTiterGlo, confirmation, counter-screen for streptokinase expression inhibitor project, dose response (AID 1900); type: functional, organism-based
Large T antigen = Large T antigen (Simian virus 40, UniProt P03070); type: functional, Betapolyomavirus macacae;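 also: Confirmatory-stage PubChem screen for compounds that inhibit SV40 T antigen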
Large T antigen, sequence (P03070 whole entry): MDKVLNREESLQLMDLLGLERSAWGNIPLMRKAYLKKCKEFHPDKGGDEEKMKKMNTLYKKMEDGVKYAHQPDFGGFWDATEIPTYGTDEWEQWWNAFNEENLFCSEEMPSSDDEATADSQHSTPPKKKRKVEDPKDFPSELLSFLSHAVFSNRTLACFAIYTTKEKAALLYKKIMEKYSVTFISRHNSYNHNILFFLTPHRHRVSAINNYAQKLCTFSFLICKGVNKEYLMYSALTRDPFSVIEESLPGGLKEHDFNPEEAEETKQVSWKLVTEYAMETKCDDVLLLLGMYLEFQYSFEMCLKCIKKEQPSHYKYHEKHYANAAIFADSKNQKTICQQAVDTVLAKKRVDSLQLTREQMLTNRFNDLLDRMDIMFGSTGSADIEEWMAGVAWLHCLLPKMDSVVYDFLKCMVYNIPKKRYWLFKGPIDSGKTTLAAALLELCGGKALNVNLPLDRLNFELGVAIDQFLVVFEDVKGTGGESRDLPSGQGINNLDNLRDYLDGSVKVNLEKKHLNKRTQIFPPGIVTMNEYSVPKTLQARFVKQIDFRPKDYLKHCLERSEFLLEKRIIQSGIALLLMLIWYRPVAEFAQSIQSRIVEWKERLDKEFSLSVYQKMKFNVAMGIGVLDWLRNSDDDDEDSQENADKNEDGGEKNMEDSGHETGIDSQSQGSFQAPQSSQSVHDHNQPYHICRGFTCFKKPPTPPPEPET

Prothrombin = Prothrombin (Bos taurus, UniProt P00735); experiment: thrombin protease inhibitors – biochemical, fluorescence polarization, uHTS hits, dose response (AID 602369); type: functional
[7] = molecular target: 72 kDa type IV collagenase (Homo sapiens, UniProt P08253); experiment: Dose Response validation of uHTS RPN11 inhibitor hits using a MMP-2 Fluorescence assay.; type: functional
72 kDa type IV collagenase, sequence (P08253 whole entry): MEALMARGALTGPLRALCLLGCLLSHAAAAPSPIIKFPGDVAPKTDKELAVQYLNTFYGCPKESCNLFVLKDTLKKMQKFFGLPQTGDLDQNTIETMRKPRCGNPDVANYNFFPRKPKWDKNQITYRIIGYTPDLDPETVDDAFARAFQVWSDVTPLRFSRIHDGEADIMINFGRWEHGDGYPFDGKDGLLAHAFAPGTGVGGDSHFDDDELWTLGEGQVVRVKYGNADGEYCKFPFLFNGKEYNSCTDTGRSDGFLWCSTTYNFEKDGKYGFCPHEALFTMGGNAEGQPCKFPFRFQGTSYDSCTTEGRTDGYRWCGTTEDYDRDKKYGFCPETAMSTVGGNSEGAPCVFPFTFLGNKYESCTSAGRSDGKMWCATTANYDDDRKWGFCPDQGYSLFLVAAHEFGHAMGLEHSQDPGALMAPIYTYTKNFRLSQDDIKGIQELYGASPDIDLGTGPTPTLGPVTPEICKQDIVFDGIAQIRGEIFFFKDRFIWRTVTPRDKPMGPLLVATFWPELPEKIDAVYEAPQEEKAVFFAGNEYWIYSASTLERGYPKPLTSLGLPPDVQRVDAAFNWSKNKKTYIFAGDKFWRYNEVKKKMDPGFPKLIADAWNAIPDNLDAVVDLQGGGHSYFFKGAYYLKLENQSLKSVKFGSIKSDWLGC

[8] = molecular target: G-protein coupled receptor 35 (Homo sapiens, UniProt Q9HC97); experiment: inhibition of zaprinast-stimulated GPR35 beta-arrestin translocation – imaging, U2OS, beta-arrestin-GFP, zaprinast agonist, primary screen (AID 2058); type: functional;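 also: antagonist potency meaning inhibition of agonist-induced arrestin redistribution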
G-protein coupled receptor 35, sequence (Q9HC97 whole entry): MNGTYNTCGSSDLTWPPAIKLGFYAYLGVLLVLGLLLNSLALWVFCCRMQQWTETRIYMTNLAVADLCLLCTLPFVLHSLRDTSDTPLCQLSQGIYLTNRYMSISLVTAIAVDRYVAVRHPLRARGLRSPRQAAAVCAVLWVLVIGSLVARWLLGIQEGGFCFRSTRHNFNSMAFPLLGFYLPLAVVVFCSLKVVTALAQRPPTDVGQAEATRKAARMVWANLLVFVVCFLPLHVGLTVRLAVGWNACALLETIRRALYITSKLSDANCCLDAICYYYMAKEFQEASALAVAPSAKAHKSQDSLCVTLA

Streptokinase A = molecular target: T4, Streptokinase A (Streptococcus pyogenes serotype M1, UniProt P10520); experiment: viability-normalized secreted streptokinase activity reduction – plasminogen activation absorbance, OD405, dose response (AID 1914); type: functional, Streptococcus pyogenes M1 GAS;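 also: secreted streptokinase activity via plasminogen activation per viability signal from cell pellet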
T4 sequence (P10520 whole entry): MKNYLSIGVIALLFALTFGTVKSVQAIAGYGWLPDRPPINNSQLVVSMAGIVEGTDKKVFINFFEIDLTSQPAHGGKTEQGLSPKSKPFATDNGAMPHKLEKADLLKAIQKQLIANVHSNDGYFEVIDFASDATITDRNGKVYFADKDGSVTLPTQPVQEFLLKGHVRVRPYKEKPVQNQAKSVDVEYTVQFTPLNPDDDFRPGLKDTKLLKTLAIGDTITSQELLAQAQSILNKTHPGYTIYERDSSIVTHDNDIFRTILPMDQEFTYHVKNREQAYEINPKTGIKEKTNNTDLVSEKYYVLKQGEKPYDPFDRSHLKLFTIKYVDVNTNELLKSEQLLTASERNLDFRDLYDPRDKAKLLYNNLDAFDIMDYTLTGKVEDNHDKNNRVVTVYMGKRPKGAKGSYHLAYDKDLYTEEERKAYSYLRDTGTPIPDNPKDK

[9] = molecular target: T5, Bifunctional protein GlmU (Mycobacterium tuberculosis, UniProt P9WMN3); experiment: Inhibitors of Mycobacterial Glucosamine-1-phosphate acetyl transferase (GlmU). Secondary screen.; parameters: species or system Mycobacterium tuberculosis H37Rv
T5 sequence (P9WMN3 whole entry): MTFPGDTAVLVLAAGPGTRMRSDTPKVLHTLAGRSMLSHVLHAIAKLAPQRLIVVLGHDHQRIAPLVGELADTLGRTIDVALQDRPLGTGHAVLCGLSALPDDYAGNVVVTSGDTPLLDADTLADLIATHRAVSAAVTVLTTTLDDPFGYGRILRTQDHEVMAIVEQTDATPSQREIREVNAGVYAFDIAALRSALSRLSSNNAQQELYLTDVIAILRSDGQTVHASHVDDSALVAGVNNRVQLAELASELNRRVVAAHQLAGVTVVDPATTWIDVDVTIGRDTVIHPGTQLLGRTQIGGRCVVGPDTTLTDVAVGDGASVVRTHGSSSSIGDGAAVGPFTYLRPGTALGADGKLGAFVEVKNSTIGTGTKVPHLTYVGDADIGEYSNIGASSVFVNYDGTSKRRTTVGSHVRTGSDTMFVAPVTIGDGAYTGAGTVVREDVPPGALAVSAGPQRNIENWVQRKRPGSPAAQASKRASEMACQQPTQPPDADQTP

[10] = molecular target: 26S proteasome non-ATPase regulatory subunit 14 (Homo sapiens, UniProt O00487); experiment: inhibition of proteasome subunit RPN11 – biochemical, fluorescence polarization, uHTS hits, confirmation (AID 602368); type: functional
26S proteasome non-ATPase regulatory subunit 14, sequence (O00487 whole entry): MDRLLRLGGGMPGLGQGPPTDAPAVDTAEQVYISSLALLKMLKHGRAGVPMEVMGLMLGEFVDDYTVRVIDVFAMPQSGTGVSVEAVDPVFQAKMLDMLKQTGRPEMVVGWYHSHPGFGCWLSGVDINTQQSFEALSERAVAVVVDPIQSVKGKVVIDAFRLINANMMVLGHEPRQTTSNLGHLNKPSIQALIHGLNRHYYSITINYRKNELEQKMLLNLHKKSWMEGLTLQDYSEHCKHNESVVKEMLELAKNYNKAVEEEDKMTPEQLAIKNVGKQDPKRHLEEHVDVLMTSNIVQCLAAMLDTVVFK

Streptococcus = experiment: GAS UMAA2166 growth inhibition – luminescence, BacTiterGlo, counter-screen for streptokinase expression inhibitor project, dose response (AID 1915); type: functional, organism-based;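 also: potency for reduction of bacterial viability or growth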
[11] = molecular target: Induced myeloid leukemia cell differentiation protein Mcl-1 (Homo sapiens, UniProt Q07820); type: functional
Induced myeloid leukemia cell differentiation protein Mcl-1, sequence (Q07820 whole entry): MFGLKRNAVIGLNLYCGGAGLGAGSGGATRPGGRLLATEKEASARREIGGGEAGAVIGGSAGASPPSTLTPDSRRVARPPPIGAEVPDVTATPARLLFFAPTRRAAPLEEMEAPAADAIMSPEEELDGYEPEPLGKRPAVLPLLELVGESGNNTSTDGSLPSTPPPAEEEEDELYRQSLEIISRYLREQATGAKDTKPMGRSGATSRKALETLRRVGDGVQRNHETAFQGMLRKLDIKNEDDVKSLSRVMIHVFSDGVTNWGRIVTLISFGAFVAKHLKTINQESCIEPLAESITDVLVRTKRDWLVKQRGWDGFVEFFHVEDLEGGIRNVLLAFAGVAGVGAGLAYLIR

[12] = molecular target: Dual specificity tyrosine-phosphorylation-regulated kinase 1A (Rattus norvegicus, UniProt Q63470); type: biochemical, Homo sapiens
[13] = molecular target: T6, Ubiquitin-conjugating enzyme E2 N (Homo sapiens, UniProt P61088); type: functional
T6 sequence (P61088 whole entry): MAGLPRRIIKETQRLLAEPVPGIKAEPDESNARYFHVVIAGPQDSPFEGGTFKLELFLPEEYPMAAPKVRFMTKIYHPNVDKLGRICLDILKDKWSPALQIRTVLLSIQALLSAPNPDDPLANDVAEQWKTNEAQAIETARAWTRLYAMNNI

[14] = molecular target: T6, Ubiquitin-conjugating enzyme E2 N; type: functional; remark: listed apart in the source
Bcl-2-related protein A1 = molecular target: T7, Bcl-2-related protein A1 (Mus musculus, UniProt Q07440); type: functional;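 also: confirmatory dose–response counterscreen on Bfl-1, used to check hits from a UBC13 polyubiquitin inhibitor campaign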
T7 sequence (Q07440 whole entry): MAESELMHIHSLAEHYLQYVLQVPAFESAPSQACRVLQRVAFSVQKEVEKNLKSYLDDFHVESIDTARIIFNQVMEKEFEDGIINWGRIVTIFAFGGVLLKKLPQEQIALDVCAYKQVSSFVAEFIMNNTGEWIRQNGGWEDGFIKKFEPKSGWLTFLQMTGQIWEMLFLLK

[15] = viability loss in Vero cells – cytotoxicity control for Vif-APOBEC3G degradation inhibitor project, dose response (AID 1117358); type: functional; conditions: Vero
[16] = HIV-1 Vif–A3G interaction blockers – biochemical, TR-FRET, GST-Vif 1-94, biotin-A3G peptide, dose response retest, primary screen (AID 1117319); type: functional;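 also: TR-FRET signal of purified GST-Vif binding a biotinylated A3G peptide; inhibitors lower the FRET signal by blocking Vif and A3G binding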

## COc1ccc(Cc2nc3c4cnn(C)c4ncn3n2)cc1
[1]
  IC50: > 100 µM (inactive)
[2]
  IC50: > 100 µM (not active)
[3]
  IC50: > 100 µM (inactive)

## CCSc1nc(O)c2c(n1)N=C1CC(C)(C)CC(O)=C1C2c1ccccn1 (stereo unspecified)
CAAX prenyl protease 2 [4]
  AC50: 9.79 µM (active)

## CC(=O)Oc1ccc(C(=O)Nc2ccc(S(=O)(=O)NCC3CCCO3)cc2)cc1 (stereo unspecified)
CAAX prenyl protease 2 [5]
  AC50: 68.7 µM (active)

## N=C1/C(=C\c2ccc(-c3cccc(C(=O)O)c3)o2)C(=O)N=C2SC=C(c3ccccc3)N12
[6]
  EC50: 0.743 µM (active)
Large T antigen
  IC50: 92.2 µM (active)
Prothrombin
  IC50: 15.8 µM (active)
[7]
  IC50: 9.07 µM (active)
[8]
  IC50: 2.29 µM (active)
Streptokinase A
  EC50: > 150 µM (not active)
[9]
  IC50: 129 µM (active)
[10]
  IC50: 7.84 µM (active)
Streptococcus
  EC50: 8.79 µM (active)
[11]
  IC50: 1.55 µM (active)
[12]
  AC50: 2.19 µM (active)

## CCn1nc(C)c(/C=N/NC(=O)c2ccc3c(c2)c(C)c(C)n3Cc2ccccc2)c1C
[3]
  IC50: > 100 µM (inactive)

## O=C1C(Cc2cnc[nH]2)NC(=S)N1c1ccccc1 (stereo unspecified)
[13]
  IC50: 4 µM (active)
[14]
  IC50: 8.14 µM (active)
Bcl-2-related protein A1
  IC50: > 20 µM (inactive)

## Cc1cc(SCC(=O)NC(=O)c2cccn2C)nc2ccccc12
[13]
  IC50: > 20 µM (inactive)
[14]
  IC50: 17.4 µM (active)
Bcl-2-related protein A1
  IC50: > 20 µM (inactive)

## Cc1ccc(C)c(S(=O)(=O)c2c[nH]c(=S)[nH]c2=O)c1
[13]
  IC50: > 20 µM (inactive)
[14]
  IC50: 14.3 µM (active)
Bcl-2-related protein A1
  IC50: > 20 µM (inactive)

## COc1ccc(OC)c(S(=O)(=O)Nc2cnc3ccccc3c2)c1
[2]
  IC50: > 100 µM (not active)
[15]
  CC50: > 40 µM (active)
[16]
  IC50: > 100 µM (active)
[3]
  IC50: > 100 µM (inactive)

## CC(C)c1c(C(=O)N/N=C/c2ccsc2)nnn1-c1nonc1N
CAAX prenyl protease 2 [5]
  AC50: 0.343 µM (active)
